Literature values in patent publication US20250002910A1, “TREATMENT OF COMPLEMENT-MEDIATED DISORDERS” (Apellis Pharmaceuticals, Inc., priority 2021, published 2025).

Test system: complement activation
Details: relative to compstatin amidated at the C-terminus; published data

| Substance | Activity over compstatin |
| --- | --- |
| Ac-ICV(1-Nal)QDWGAHRCT-COOH [AcV4(1-Nal)/H9A-OH] | 30x more |
| Ac-ICV(2-IgI)QDWGAHRCT-CONH2 [Ac-V42lgl/H9A] | 39x more |
| Ac-ICV(2-IgI)QDWGAHRCT-COOH [Ac-V42lgl/H9A-OH] | 37x more |
| Ac-ICV(2-Nal)QDWGAHRCT-CONH2 [Ac-V4(2-Nal)/H9A] | 99x more |
| Ac-ICV(2-Nal)QDWGAHRCT-COOH [AcV4(2-Nal)/H9A-OH] | 38x more |
| Ac-ICV(Bpa)QDWGAHRCT-CONH2 [Ac-V4(Bpa)/H9A] | 86x more |
| Ac-ICV(Bpa)QDWGAHRCT-COOH [Ac-V4(Bpa)/H9A-OH] | 49x more |
| Ac-ICVDhtQDWGAHRCT-COOH [Ac-V4Dht/H9A-OH] | 5x more |
| Ac-ICVVQDWGHHRCT-CONH2 [Ac-compstatin] | 3x more |
| Ac-ICVWQD(5fW)GAHRCT-CONH2 [Ac-V4W/W7(5fW)/H9A] | 121x more |
| Ac-ICVWQDWGAHRCT-CONH2 (Ac-ICVWQDWGAHRCT-NH2; not fully specified (bridges); printed as Ac-ICVWQDWGAHRCT-CONH2; cysteine pairing not given here) [Ac-V4W/H9A] | 45x more |
| Ac-ICVWQDWGAHRCdT-COOH [Ac-V4W/H9A/T13dT-OH] | 55x more |
| Ac-ICVYQDWGAHRCT-CONH2 [Ac-V4Y/H9A] | 14x more |
| H-GICV(6fW)QD(6fW)GAHRCTN-COOH [+G/V4(6fW)/W7(6fW)H9A+N-OH] | 126x more |
